From paper PMC9268515, “UGT1A1 and UGT1A9 Are Responsible for Phase II Metabolism of Tectorigenin and Irigenin In Vitro” (Molecules, 2022)

Molecular target: T1, UGT2B15 (Homo sapiens, UniProt P54855)
T1 construct: purchased BD Biosciences (Woburn, MA, USA)
T1 sequence (P54855 24-530): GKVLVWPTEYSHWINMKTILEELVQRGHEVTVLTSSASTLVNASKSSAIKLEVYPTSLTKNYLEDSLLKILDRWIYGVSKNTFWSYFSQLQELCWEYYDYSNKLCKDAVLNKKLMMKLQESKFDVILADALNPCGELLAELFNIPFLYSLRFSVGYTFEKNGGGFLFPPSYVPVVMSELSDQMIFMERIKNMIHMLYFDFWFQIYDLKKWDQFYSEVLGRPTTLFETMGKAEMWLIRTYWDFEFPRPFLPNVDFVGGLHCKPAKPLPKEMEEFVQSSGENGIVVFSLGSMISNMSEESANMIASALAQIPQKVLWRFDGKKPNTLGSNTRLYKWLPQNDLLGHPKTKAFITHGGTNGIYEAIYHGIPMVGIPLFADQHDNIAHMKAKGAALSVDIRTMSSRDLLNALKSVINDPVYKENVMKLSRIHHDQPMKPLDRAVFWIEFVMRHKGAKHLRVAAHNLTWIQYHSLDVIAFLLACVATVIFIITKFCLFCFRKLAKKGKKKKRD
Test: Recombinant UGT reaction screening, UGT2B15
Type: in vitro ADME
Method: UGT reaction screening of tectorigenin and irigenin was conducted using nine commercially available human UGTs (UGT1A1/1A3/1A4/1A6/1A9/2B4/2B7/2B15/2B17). Furthermore, we studied the enzymatic kinetic characteristics of tectorigenin and irigenin using UGT1A1 and UGT1A9. Six concentrations of tectorigenin and irigenin (1, 3, 10, 30, 100, and 300 μM) were incubated in triplicate in order to obtain the enzyme kinetic characteristics of tectorigenin and irigenin glucuronide.

Activity in glucuronidation of tectorigenin: none
Compound: COc1c(O)cc2occ(-c3ccc(O)cc3)c(=O)c2c1O [Tectorigenin, 5,7,4′-trihydroxyl-6-methoxyl isoflavone]
